Assay results as given in US20250361264A1, “PROTEIN MODIFYING REAGENT” (CANON KABUSHIKI KAISHA, priority 2023, published 2025).

Columns and labels:
[1] = target: T1, silk fibroin powder (Bombyx mori, UniProt P05790); assay: Evaluation of adsorptivity of groups containing aromatic rings to proteins having β-sheet structures; format: binding; conditions: for Adsorption rate to fibroin (%): 0.02 mM, 0.15 mL methanol solution on 10 mg silk fibroin powder, dried, 0.15 mL water, 5 minutes stirring, supernatant absorbance; for Adsorptivity: class of adsorption rate to fibroin
T1 construct: purchased Sigma-Aldrich
Method: After distillation of methanol by air-drying, 0.15 mL of water was added. After stirring for 5 minutes, the supernatant was collected. The adsorption rate of groups containing aromatic rings to fibroin was calculated from the concentration of groups containing aromatic rings in the collected supernatant liquid and the change in concentration by absorbance measurement, the adsorptivity of groups containing aromatic rings to proteins having β-sheet structures was evaluated using the following criteria.
“Evaluation A” and “Evaluation B” indicate the level at which groups containing aromatic rings adsorb strongly to proteins having a β-sheet structure, and “Evaluation C” indicates the low adsorptivity of groups containing aromatic rings.
• A: 90% or more • B: 60% or more but less than 90% • C: Less than 60%

[2] = target: T2, fibroin sheet (Bombyx mori, UniProt P05790); assay: Color intensity of modified fibroin sheet after peroxidase DAB staining; format: biochemical; conditions: fibroin sheet adsorbed from 0.3 mg/mL solution; DAB staining solution 1.5 μL, 5 minutes; ImageJ; average of five sheets
T2 construct: purchased Sigma-Aldrich
Method: To 0.18 g of silk fibroin powder (manufactured by Sigma-Aldrich), 3.82 g of hexafluoro--2 propanol (HFIP) was added, and the mixture was stirred at room temperature using a mix rotor. Thereafter, filtration was performed using a filter (Millex-AP, Millipore) to obtain a 4.5 wt % fibroin solution. Fibroin solution (0.1 mL) was used to prepare and collect a sheet of fibroin fibers on an aluminum dish using an electrospinning device (NANON-03, MECC).
After methanol was added to the collected sheet, methanol was removed and dried overnight. The measurement of the weight of the fibroin sheet cut into 20 mm×40 mm size confirmed that it was 1.25 μg/mm^2 fibroin sheet. […]
To the fibroin sheet modified with Compound 1 obtained in Manufacturing Example 2, a staining solution (1.5 μL) of the peroxidase staining DAB kit (Brown Stain) (manufactured by Nacalai Tesque) was added dropwise and allowed to stand for 5 minutes in a wet box. […] After drying the sheet, the sheet was read by a scanner to acquire image data. The obtained image data were measured for color intensity using ImageJ software. Five sheets were made, and the same evaluation was carried out, and the average value of the color intensity (Color Intensity, hereinafter CI value) was calculated. The calculated CI value was 59.8.

Molecule | Adsorption rate to fibroin (%) [1] [%] | Adsorptivity [1] | CI value (average color intensity) [2]
O=C(O)CCNc1ccc(-c2nc3ccccc3s2)cc1 [Compound 2] | 79 | B (60% or more but less than 90%) | 
HRP: horseradish peroxidase (manufactured by Sigma-Aldrich), unmodified comparison |  |  | 39.5
Thioflavin T acid [reference compound] | 91 | A (90% or more) | 
Compound 1: Thioflavin T acid bound to horseradish peroxidase (HRP); one Thioflavin T acid molecule per HRP molecule |  |  | 59.8
O=C(O)CCOc1ccccc1-c1nc2ccccc2s1 [Compound 4] | 71 | B (60% or more but less than 90%) | 
